Columns and labels:
[1] = molecular target: T1, human type II inosine-5′-monophosphate dehydrogenase (IMPDH II) (Homo sapiens, UniProt P12268); test: recombinant enzyme assay, NADH formation at […] nm, […] IMP and […] NAD; type: biochemical
T1 construct: gene IMPDH2; human recombinant IMPDH II

[2] = molecular target: T1, human type II inosine-5′-monophosphate dehydrogenase (IMPDH II); test: recombinant enzyme assay, NADH formation at […] nm; positive control; type: biochemical

T1 sequence (P12268 2-514): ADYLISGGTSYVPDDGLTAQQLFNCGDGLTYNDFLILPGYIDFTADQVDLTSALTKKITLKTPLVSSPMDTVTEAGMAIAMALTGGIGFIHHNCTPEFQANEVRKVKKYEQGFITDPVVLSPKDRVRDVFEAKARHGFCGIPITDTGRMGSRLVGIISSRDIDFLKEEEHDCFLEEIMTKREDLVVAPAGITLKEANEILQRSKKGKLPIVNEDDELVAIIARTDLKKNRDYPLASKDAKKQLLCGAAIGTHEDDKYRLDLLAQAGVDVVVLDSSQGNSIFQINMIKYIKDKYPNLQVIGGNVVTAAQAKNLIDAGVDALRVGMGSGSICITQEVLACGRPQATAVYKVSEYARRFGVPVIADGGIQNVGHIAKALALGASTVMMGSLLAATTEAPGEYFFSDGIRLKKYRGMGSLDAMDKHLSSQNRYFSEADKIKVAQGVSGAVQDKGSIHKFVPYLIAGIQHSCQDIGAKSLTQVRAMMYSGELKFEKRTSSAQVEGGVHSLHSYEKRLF

Compound | Ki [1] | IC50 [2]
O=c1[nH]cnc2c1ncn2C1C=CC(OCP(=O)(O)O)C1 (stereo not drawn) [compound 1, 9-(4’-Phosphonomethoxy-2’-cyclopenten-1’-yl)hypoxanthine] | 474 µM | –
NC(=O)c1ncn([C@@H]2O[C@H](COP(=O)(O)O)[C@@H](O)[C@H]2O)n1 [Ribavirin monophosphate] | – | 2 µM
O=c1[nH]cnc2c1ncn2C1CC(OCP(=O)(O)O)C(O)C1O (stereo not drawn) [compound 2, 9-(4’-phosphonomethoxy-2’,3’-dihydroxycyclopent-1’-yl)hypoxanthine] | 975 µM | –

Source: PMC3549521, “Carbocyclic Analogues of Inosine-5’-Monophosphate: Synthesis and Biological Activity” (Acta Naturae, 2012)
